Data: paper PMC5991599, “Anti‐tumor efficacy of a novel CLK inhibitor via targeting RNA splicing and MYC‐dependent vulnerability” (EMBO Molecular Medicine, 2018)

Experiments:
[1] = molecular target: T1, HIPK3 (Homo sapiens, UniProt Q9H422); experiment: KINOMEScan-based kinase selectivity assay; format: binding; conditions: 300 nmol/L, n = 2
T1 construct: purchased DiscoverX Corporation (Fremont, CA, USA)
Procedure: (§1) The KINOMEScan‐based kinase selectivity assay was performed at the DiscoverX Corporation (Fremont, CA, USA). The panel of growth inhibition assay and subsequent bioinformatics analysis (Fig EV1) were performed at Eurofins Inc. (St. Charles, MO, USA), using OncoPanel 240 or 60. Details of the procedures of cell proliferation assay, caspase‐3/7 activity assay, immunoblotting, and immunohistochemistry are described in Appendix Supplementary Methods.

[2] = molecular target: T2, HIPK4 (Homo sapiens, UniProt Q8NE63); experiment: KINOMEScan-based kinase selectivity assay; format: binding; conditions: 300 nmol/L, n = 2
T2 construct: purchased DiscoverX Corporation (Fremont, CA, USA)
T2 sequence (Q8NE63 whole entry): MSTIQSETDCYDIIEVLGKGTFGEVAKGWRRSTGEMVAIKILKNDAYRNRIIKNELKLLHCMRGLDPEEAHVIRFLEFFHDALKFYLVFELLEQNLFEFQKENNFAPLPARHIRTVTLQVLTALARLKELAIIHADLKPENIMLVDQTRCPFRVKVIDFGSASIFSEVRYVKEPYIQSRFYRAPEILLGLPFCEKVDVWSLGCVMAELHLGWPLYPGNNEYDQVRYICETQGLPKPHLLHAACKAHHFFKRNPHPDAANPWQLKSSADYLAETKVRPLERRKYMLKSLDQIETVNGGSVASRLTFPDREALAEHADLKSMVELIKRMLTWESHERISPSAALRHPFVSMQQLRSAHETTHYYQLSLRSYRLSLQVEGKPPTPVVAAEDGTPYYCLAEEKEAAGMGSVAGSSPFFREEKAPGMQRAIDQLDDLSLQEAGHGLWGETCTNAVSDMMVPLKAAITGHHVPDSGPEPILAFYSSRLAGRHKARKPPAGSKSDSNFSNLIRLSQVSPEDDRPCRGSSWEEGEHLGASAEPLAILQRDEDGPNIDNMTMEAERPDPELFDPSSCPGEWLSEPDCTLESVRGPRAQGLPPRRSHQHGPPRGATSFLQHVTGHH
Procedure: as §1

[3] = molecular target: T3, FLT3 D835Y (Homo sapiens, UniProt P36888, D835Y); experiment: KINOMEScan-based kinase selectivity assay; format: binding; conditions: 300 nmol/L, n = 2
T3 construct: purchased DiscoverX Corporation (Fremont, CA, USA)
Procedure: as §1

[4] = molecular target: HIPK2 (Homo sapiens, UniProt Q9H2X6); experiment: KINOMEScan-based kinase selectivity assay; format: binding; design: purchased DiscoverX Corporation (Fremont, CA, USA)
Chain of HIPK2 (Q9H2X6 whole entry): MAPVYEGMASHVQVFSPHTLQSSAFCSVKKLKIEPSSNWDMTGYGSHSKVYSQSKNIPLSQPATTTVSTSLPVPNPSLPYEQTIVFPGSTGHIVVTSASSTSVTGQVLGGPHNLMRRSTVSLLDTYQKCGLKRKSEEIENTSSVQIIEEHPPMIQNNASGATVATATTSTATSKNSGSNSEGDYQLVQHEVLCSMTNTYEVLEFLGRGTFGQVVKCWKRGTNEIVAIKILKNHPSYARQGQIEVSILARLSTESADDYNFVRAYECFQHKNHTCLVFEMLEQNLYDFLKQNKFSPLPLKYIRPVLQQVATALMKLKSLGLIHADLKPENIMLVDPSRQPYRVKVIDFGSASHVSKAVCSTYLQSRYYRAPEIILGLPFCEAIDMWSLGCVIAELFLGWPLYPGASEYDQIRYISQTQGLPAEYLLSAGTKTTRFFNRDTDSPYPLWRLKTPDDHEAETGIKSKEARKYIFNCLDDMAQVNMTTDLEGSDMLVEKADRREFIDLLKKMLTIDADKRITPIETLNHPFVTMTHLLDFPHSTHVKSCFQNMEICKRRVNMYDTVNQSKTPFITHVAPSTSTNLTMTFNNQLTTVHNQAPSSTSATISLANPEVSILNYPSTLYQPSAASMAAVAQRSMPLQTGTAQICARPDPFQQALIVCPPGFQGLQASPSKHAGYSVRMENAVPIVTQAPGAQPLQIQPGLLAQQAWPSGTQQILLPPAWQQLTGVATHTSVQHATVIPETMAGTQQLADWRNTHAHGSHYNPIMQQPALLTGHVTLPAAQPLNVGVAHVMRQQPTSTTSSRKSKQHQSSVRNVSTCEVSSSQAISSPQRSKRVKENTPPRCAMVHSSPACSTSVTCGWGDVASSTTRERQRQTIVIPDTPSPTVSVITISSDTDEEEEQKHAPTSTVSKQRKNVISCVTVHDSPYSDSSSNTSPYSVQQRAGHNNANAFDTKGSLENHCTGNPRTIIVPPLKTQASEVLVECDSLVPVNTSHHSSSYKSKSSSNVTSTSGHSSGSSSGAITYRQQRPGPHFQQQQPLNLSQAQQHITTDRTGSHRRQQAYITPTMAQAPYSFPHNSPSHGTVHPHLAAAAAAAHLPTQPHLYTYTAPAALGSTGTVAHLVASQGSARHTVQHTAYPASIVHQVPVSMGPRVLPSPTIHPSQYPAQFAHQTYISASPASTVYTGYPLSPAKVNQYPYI
Procedure: as §1, with “Charles, MO, USA), using OncoPanel 240 or 60.” left out

[5] = molecular target: DYRK1B (Homo sapiens, UniProt Q9Y463); experiment: KINOMEScan-based kinase selectivity assay; format: binding; design: purchased DiscoverX Corporation (Fremont, CA, USA)
Chain of DYRK1B (Q9Y463 whole entry): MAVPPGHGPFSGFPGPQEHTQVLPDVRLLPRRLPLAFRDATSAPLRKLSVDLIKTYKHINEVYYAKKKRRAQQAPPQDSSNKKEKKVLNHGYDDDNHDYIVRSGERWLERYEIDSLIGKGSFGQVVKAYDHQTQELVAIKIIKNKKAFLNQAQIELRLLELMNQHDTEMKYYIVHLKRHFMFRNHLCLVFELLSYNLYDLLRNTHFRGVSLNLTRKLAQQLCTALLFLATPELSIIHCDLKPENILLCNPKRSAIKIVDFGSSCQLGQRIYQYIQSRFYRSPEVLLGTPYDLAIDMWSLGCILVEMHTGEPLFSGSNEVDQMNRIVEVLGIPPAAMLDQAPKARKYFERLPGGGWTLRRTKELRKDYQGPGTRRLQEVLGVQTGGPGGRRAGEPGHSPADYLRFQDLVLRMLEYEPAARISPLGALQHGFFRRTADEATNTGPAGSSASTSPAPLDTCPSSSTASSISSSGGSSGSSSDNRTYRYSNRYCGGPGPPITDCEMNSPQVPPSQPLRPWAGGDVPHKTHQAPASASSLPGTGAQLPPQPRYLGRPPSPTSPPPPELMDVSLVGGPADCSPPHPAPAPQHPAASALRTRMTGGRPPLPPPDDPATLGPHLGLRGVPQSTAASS
Procedure: as §1, with “Charles, MO, USA), using OncoPanel 240 or 60.” left out

[6] = system: NCI-H1048 xenografts; experiment: Efficacy study in NCI-H1048 xenograft model; format: in vivo, Balb/c nude mice; conditions: 50 mg/kg, twice weekly regimen
Procedure: MDA‐MB‐468 (5 × 10^6), NCI‐H1048 (5 × 10^6), or MV‐4‐11 (2 × 10^6) cells in Matrigel were subcutaneously inoculated into the left flanks of Balb/c nude mice (7‐ to 8‐week‐old females). When xenografted tumors grew to a sufficient volume, the tumor diameter was measured and its volume was calculated as follows:
Tumor volume=long diameter×short diameter×short diameter×(1/2)
Mice having a tumor of size approximately 200 mm^3 were used in efficacy or in vivo pharmacodynamics studies. T‐025 was dissolved in 0.5% methylcellulose solution. For the efficacy study, after randomized grouping, mice were treated with T‐025 twice daily once or twice weekly for 2 or 3 weeks. The mouse tumor volume and body weight were measured every 2–3 days.

[7] = system: MDA-MB-468; experiment: Cell proliferation assay (CellTiter-Glo); format: cell-based; conditions: Homo sapiens, 72 h treatment, breast cancer, read-out: IC50 (growth inhibition)
Procedure: (§2) Cell proliferation assay, Caspase-3/7 assay
(§3) Cell proliferation was measured using CellTiter-Glo luminescent cell viability
(§4) assay (Promega, Fitchburg, WI, U.S.A.). Caspase-3/7 activity was measured using
(§5) Caspase-Glo 3/7 Assay Systems (Promega). Luminescence of each well was measured
(§6) using ARVO Light (PerkinElmer Inc., Waltham, MA, U.S.A.). The IC50 value and 95%
(§7) confidential intervals were estimated using GraphPad Prism 5 (GraphPad Software,
(§8) Inc., La Jolla, CA, U.S.A.). […]

[8] = system: 786-O; experiment: Cell proliferation assay (CellTiter-Glo); format: cell-based; conditions: Homo sapiens, 786-0; 72 h treatment; kidney cancer; read-out: IC50 (growth inhibition)
Procedure: as §2, §3, §4, §5, §6, §7, §8

[9] = system: NCI-H1048; experiment: Cell proliferation assay (CellTiter-Glo); format: cell-based; conditions: Homo sapiens, 72 h treatment, lung cancer, read-out: IC50 (growth inhibition)
Procedure: as §2, §3, §4, §5, §6, §7, §8

[10] = system: Wi38; experiment: Cell proliferation assay (CellTiter-Glo); format: cell-based; conditions: Homo sapiens, WI-38; 72 h treatment; normal lung fibroblast; read-out: IC50 (growth inhibition)
Procedure: as §2, §3, §4, §5, §6, §7, §8

[11] = system: COLO320HSR; experiment: Cell proliferation assay (CellTiter-Glo); format: cell-based; conditions: Homo sapiens, COLO-320-HSR; 72 h treatment; colorectal cancer; read-out: IC50 (growth inhibition)
Procedure: as §2, §3, §4, §5, §6, §7, §8

[12] = system: BJ; experiment: Cell proliferation assay (CellTiter-Glo); format: cell-based; conditions: Homo sapiens, 72 h treatment, normal skin fibroblast, read-out: IC50 (growth inhibition)
Procedure: as §2, §3, §4, §5, §6, §7, §8

T1 sequence (Q9H422 whole entry): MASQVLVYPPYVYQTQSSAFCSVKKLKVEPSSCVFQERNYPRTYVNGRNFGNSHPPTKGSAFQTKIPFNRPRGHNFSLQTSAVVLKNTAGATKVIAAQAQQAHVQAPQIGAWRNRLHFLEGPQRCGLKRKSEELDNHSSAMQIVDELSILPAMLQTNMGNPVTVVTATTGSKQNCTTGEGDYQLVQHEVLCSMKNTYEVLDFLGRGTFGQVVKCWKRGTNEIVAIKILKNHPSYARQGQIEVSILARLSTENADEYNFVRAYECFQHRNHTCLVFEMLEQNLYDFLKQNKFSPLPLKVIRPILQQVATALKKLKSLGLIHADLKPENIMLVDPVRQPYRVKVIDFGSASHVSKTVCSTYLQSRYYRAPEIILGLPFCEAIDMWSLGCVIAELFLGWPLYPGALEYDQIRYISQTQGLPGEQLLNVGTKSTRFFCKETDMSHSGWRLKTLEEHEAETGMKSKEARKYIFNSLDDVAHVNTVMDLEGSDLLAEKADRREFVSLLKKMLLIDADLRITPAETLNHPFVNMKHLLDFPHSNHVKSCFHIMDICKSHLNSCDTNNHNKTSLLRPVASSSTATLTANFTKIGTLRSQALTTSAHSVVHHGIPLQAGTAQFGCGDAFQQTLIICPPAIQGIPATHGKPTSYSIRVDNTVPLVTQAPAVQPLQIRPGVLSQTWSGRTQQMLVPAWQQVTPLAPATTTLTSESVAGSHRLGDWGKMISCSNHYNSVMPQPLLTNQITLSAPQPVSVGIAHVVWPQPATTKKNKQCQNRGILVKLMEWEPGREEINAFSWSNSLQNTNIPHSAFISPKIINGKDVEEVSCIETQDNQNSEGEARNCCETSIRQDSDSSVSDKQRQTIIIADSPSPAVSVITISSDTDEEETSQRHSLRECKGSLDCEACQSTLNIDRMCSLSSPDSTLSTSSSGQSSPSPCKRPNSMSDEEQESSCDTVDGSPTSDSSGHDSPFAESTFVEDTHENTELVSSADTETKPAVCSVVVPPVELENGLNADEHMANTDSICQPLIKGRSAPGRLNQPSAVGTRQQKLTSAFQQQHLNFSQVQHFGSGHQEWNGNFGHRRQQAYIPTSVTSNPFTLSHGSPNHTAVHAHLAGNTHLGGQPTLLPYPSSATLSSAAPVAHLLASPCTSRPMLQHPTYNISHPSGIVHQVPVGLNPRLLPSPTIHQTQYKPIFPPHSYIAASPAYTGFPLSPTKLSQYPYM

## CNc1nc(NCc2ncccn2)c2c(-c3ccc4ncccc4c3)c[nH]c2n1 [T-025, N ^2‐methyl‐N ^4‐[pyrimidin‐2‐ylmethyl]‐5‐[quinolin‐6‐yl]‐7H‐pyrrolo[2,3‐d]pyrimidine‐2,4‐diamine]
[1]
  inhibition at 0.3 µM: 95.1%
[2]
  inhibition at 0.3 µM: 95.6%
[3]
  inhibition at 0.3 µM: 93.3%
[4]
  Kd: 0.096 µM
[4]; 300 nmol/L, n = 2
  inhibition at 0.3 µM: 96%
[5]
  Kd: 0.0015 µM
[5]; 300 nmol/L, n = 2
  inhibition at 0.3 µM: 99.6%
[6]
  anti-tumor efficacy, tumor volume: exhibited in vivo anti‐tumor efficacy
  body weight loss: no significant body weight loss
[7]
  IC50: 0.0798 µM
[8]
  IC50: 0.34 µM
[9]
  IC50: 0.0844 µM
[10]
  IC50: 0.257 µM
[11]
  IC50: 0.0918 µM
[12]
  IC50: 0.355 µM
